From US11420966B2 (ACLARIS THERAPEUTICS, INC., priority 2019, dated 2022) come the findings set out here.

Molecules are shown by their SMILES.

In the experiment the test system is IFNγ stimulated STAT1 phosphorylation on Tyr701 (JAK1/2). Put plainly: JAK1/2 cellular target modulation: IFNγ stimulated phospho-STAT1 in PBMC. The format is cell-based. As to conditions: human PBMC, IFNγ 10 ng/ml; read-out: Infγ-STAT1 IC50. The method, boiled down: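 Thawed human PBMC (200,000/well, RPMI/10% FBS) were preincubated with compound for 1 h at 37 °C, added from 10× stocks in 1% DMSO. Stimulation and read-out: IL-2 25 ng/ml, 5 min, pSTAT5 by MSD; IL-12 1.7 ng/ml, 25 min, pSTAT4 by MSD; IFNγ 10 ng/ml, 10 min, pSTAT1 by sandwich ELISA.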

Consider `CNC(=O)c1coc(-c2cnc3[nH]ccc3c2N[C@@H]2C[C@H](C)CN(C(=O)CC#N)C2)n1` [Example 31, 2-(4-(((3R,5S)-1-(2-cyanoacetyl)-5-methylpiperidin-3-yl)amino)-1H-pyrrolo[2,3-b]pyridin-5-yl)-N-methyloxazole-4-carboxamide], for which the concentration for half-maximal inhibition (IC50) is at most 100 nM.
